Measurements reported in patent US8357692B2, “Methods of treatment of bone degenerative diseases” (Washington University, priority 2010, dated 2013).
Entries after “also recorded” stand apart in the source; their conditions may differ. Like-named read-outs stand apart in the source and are kept apart here.

Tests used:
[1] = test system: coculture of bone marrow macrophages (BMMs) with osteoblasts; test: Osteoclast formation in coculture of bone marrow macrophages with osteoblasts; assay type: cell-based, mice; conditions: BMMs with primary osteoblasts, Vitamin D, varying concentrations
Procedure: Calvaria osteoblast isolation and culture: Whole calvaria were extracted from 3-4 day old pups and cleaned of soft and periostial tissue. Osteoblasts were liberated by 3×20 minute collagenase treatment at 37 degrees, shaking. Osteoblasts were transduced with appropriate virally expressed proteins when 50% confluent, selected with the appropriate antibiotic for 4 days, then plated for experiments. For cocultures, BMMs were cultured for 4 days prior to being lifted and then cultured with osteoblasts in α-MEM media containing pen/strep, 10% FBS and 10 nM VitD3, plus IL-17 or other cytokines where indicated.
To test whether IL-17 signaling is important in the pathogenesis of osteoporosis, the inventors mimicked the most common human form of osteoporosis, that of estrogen deficiency, by removing ovaries (ovx) in mice. […] Four weeks later, Micro-CT, a sensitive and specific measure of bone volume, was used to assess trabecular Bone Volume per Total Volume measured in the distal femora. […] Ovariectomized mice (n=5-7 mice per group) were treated with IL-17 blocking antibody or isotype control for two and four weeks and distal femora were analyzed by micro-CT.
To test the function of IL-17 signaling in the osteoblast, the inventors first determined the IL-17 receptor is expressed in osteoblasts, and its expression is unaffected by TNFα or IL-17 stimulation. […]

osteoblasts = test: BrdU incorporation in osteoblasts; assay type: cell-based, mice; conditions: 10 ng/ml, 24 hours, IL-17 receptor WT and KO osteoblasts
Procedure: To test the function of IL-17 signaling in the osteoblast, the inventors first determined the IL-17 receptor is expressed in osteoblasts, and its expression is unaffected by TNFα or IL-17 stimulation. Primary osteoblasts were stimulated with vehicle control, IL-17 (10 ng/ml), TNF (5 ng/ml), or a combination of the two for 24 hours, and RT-PCR for the IL-17 receptor and actin was performed (FIG. 6). Next the inventors cultured BMMs in combination with primary osteoblasts, Vitamin D, and varying IL-17 concentrations. Osteoblasts were lifted, then osteoclasts were fixed and TRAP stained. […] Primary osteoblasts were stimulated with IL-17 or vehicle control for 24 hours, and RT-PCR was performed using primers for RANKL or actin. […] IL-17 receptor WT and KO osteoblasts were cultured with IL-17 (10 ng/ml) and BrdU for 24 hours, after which BrdU incorporation was measured by absorptiometry.

RANKL = test: RT-PCR for RANKL in primary osteoblasts; assay type: cell-based, mice; conditions: 24 hours
Procedure: RT-PCR: RNA was isolated using RNeasy kits (Qiagen); RLT lysis buffer was supplemented with β-mercaptoethanol (1%). Purified RNA was treated with DNase I (Invitrogen; Carlsbad, Calif.) prior to reverse transcription (RT). RT was performed using SuperScript III (Invitrogen). A negative control using RNA not subjected to reverse transcription was included in each assay. Quantitative PCR (qPCR) was performed using Applied Biosystems's (Foster City, Calif.) Power SYBR green master mix and gene specific primers. The qPCR reaction was run on Applied Biosystem's ABI Prism 7000. Transcript levels were normalized to cyclophilin.
To test the function of IL-17 signaling in the osteoblast, the inventors first determined the IL-17 receptor is expressed in osteoblasts, and its expression is unaffected by TNFα or IL-17 stimulation. Primary osteoblasts were stimulated with vehicle control, IL-17 (10 ng/ml), TNF (5 ng/ml), or a combination of the two for 24 hours, and RT-PCR for the IL-17 receptor and actin was performed (FIG. 6). Next the inventors cultured BMMs in combination with primary osteoblasts, Vitamin D, and varying IL-17 concentrations. Osteoblasts were lifted, then osteoclasts were fixed and TRAP stained. […] IL-17 receptor WT and KO osteoblasts were cultured with IL-17 (10 ng/ml) and BrdU for 24 hours, after which BrdU incorporation was measured by absorptiometry.

P. falciparum FCR-3 = conditions: cited from earlier work; for antimalarial activity and selectivity in words: against P. falciparum in vitro
FM3A mouse mammary cells = conditions: cited from earlier work
[2] = test system: ovariectomy-induced bone loss; test: Ovariectomy-induced bone loss in mice, micro-CT of distal femora; assay type: in vivo
fibrosis accumulation = conditions: rat urethral stricture, cirrhosis, pulmonary fibrosis models; cited from earlier work
[3] = test system: IL-17 production and TH17 cell differentiation; conditions: cited from earlier work
serum CTx = test: Serum CTx ELISA in ovariectomized mice; assay type: in vivo; conditions: ovx mice treated daily, two weeks, relative to sham operated mice
[4] = test system: CD4+ T-cells producing IL-17 (Th17 cells); test: Flow cytometry of spleen cells for CD4+ T-cells producing IL-17; assay type: in vivo; conditions: ovx mice treated daily for two weeks
[5] = healthy male volunteers, cited from earlier work
collagen α1(I) = conditions: cited from earlier work
bone formation = test: Bone formation assay (calcein double labeling); assay type: in vivo; conditions: mice treated daily for 14 days, versus PBS control
Procedure: Bone formation assay (calcein double labeling): Mice were injected with 7.5 mg/kg calcein (Sigma-Aldrich; St. Louis, Mo.). Five days later mice were injected again, and tibias were harvested after an additional 2 days for histologic analysis. Dynamic assessment of trabecular bone formation was determined on non-decalcified sections using BioQuant software (Bioquant; Nashville, Tenn.). This software provided measures of bone surface, percent single-(sLS/BS) and double-labeled (dLS/BS) bone surface, mineralizing surface (MS/BS), mineral apposition rate (MAR), and bone formation rate (BFR/BS). Trabecular bone measurements were taken from a region encompassing a 500 μm-long field, across the width of the bone (located 100 μm below the growth plate). For each animal, 2 serial sections were analyzed and the measurements averaged. Pictures were obtained using an Olympus 1×51 fluorescent microscope fitted with Olympus DP70 camera (Olympus; Center Valley, Pa.).
Since Halofuginone inhibits type I collagen synthesis by fibroblasts and other cells, bone formation rates were tested to determine whether the rates are reduced in mice treated with the chemical. Mice were treated daily with HL or vehicle control for 14 days, while Calcein was injected on day 7 and 12, and Mineral Apposition Rates (MAR) and Bone Formation Rates (BFR) were determined.

Body composition by MRI = assay type: in vivo, mice; conditions: 12 weeks of treatment, versus PBS
Procedure: MRI: Measurements of body composition were performed using the magnetic resonance imaging facility located at the Animal Model Research Core at Washington University (CNRU grant NIB P30 DK56341).
IL-17A inhibits adipocyte differentiation from human mesenchymal stem cells (Shin et al., Biochem. Pharmacol., 77(12), 1835-1844, 2009). IL17R−/− mice are heavier and have higher leptin levels, which is a marker of adopocyte mass (Galic et al., Mol. Cell Endocrinol., 316(2), 129-139, 2010; Goswami et al., Eur J Immunol, 39(10), 2831-2839, 2009). Leptin can stimulate IL-17 production (Liu et al., Br. J. Ophthalmol., 92(4), 557-561, 2008), and blood IL-17 levels are increased in obese women (Sumarac-Dumanovic et al., Int. J. Obes. (Lond), 33(1), 151-156, 2009). […] Eight week old mice (n=6 mice per group) were treated with Halofuginone or PBS for 12 weeks, after which body content was measured using MRI.

[6] = Table 1, against P. falciparum FCR-3, in vitro, read-out: EC50 (M) antimalarial activity
[7] = read-out: EC50 (M) cytotoxicity, Table 1, against FM3A mouse mammary cells
[8] = Table 2, against P. falciparum FCR-3, in vitro, read-out: EC50 (M) antimalarial activity
[9] = read-out: EC50 (M) cytotoxicity, Table 2, against FM3A mouse mammary cells

IL-17: interleukin-17, cytokine promoting osteoclast formation, added to cultures
osteoclast formation [1]: potently induced osteoclast formation
osteoblast proliferation (BrdU incorporation) (osteoblasts): does not affect osteoblast proliferation
RANKL mRNA expression in the osteoblast (RANKL): induced by IL-17

O=c1c2ccccc2ncn1CC1(O)C[C@@H]2NCCC[C@@H]2O1 (stereo partly drawn) [compound 2, isofebrifugine]
EC50 (P. falciparum FCR-3; [6]): 3.4e-09 M
EC50 (FM3A mouse mammary cells): 1.8e-07 M

CCN(CC)CCCC(C)Nc1ccnc2cc(Cl)ccc12 (stereo not drawn) [chloroquine]
EC50 (P. falciparum FCR-3; [6]): 1.8e-08 M
EC50 (FM3A mouse mammary cells; [7]): 3.2e-05 M

CC1(C)[C@@H](N2CNc3ccccc3C2=O)C(O)=C[C@@H]2[C@@H](O)CCCN21 [compound 38]
EC50 (P. falciparum FCR-3; [8]): 4.2e-07 M
EC50 (FM3A mouse mammary cells; [9]): > 1.6e-05 M

O=c1ccncn1CC1(O)C[C@@H]2NCCC[C@@H]2O1 (stereo partly drawn) [compound 13]
EC50 (P. falciparum FCR-3; [6]): 4e-08 M
EC50 (FM3A mouse mammary cells): 7e-06 M

O=C(CC1NCCCC1=O)Cn1cnc2ccccc2c1=O (stereo not drawn) [compound 7]
EC50 (P. falciparum FCR-3; [6]): 2e-08 M
antimalarial activity and selectivity in words (P. falciparum FCR-3): potential antimalarial activity with high selectivity
EC50 (FM3A mouse mammary cells; [7]): 1e-05 M

O=C(C[C@H]1NCCC[C@@H]1O)Cn1cnccc1=O [compound 12]
EC50 (P. falciparum FCR-3; [6]): 6e-07 M
EC50 (FM3A mouse mammary cells; [7]): > 1.9e-05 M

C[C@@H]1CC[C@H]2[C@@H](C)C(=O)O[C@@H]3O[C@@]4(C)CC[C@@H]1[C@]32OO4 [artemisinin]
EC50 (P. falciparum FCR-3; [6]): 1e-08 M
EC50 (FM3A mouse mammary cells): 1e-05 M

O=c1c2ccccc2ccn1CC1(O)C[C@@H]2NCCC[C@@H]2O1 (stereo partly drawn) [compound 15]
EC50 (P. falciparum FCR-3; [6]): 2.1e-06 M
EC50 (FM3A mouse mammary cells): > 6.3e-06 M

O=c1c2ccccc2ncn1CC(O)C[C@H]1NCCC[C@@H]1O (stereo partly drawn) [compound 8]
EC50 (P. falciparum FCR-3; P. falciparum in vitro, read-out: EC50, in vitro antimalarial activity): 2e-08 M
antimalarial activity and selectivity in words (P. falciparum FCR-3): strongly active and selective
EC50 (FM3A mouse mammary cells; [7]): 1.5e-05 M

O=C(C[C@@H]1NCCC[C@H]1O)Cn1cnc2cc(Br)c(Cl)cc2c1=O [Halofuginone, 7-Bromo-6-chloro-3-[3-[(2S,3R)-3-hydroxy-2-piperidinyl]-2-oxopropyl]-4-quinazolinone]
Connectivity Density ([2]; four weeks after ovariectomy, daily injection): completely protected
ovariectomy-induced bone loss ([2]; four weeks post-ovx): lost significantly less bone than PBS injected mice; also recorded: protects from ovariectomy-induced bone loss; also recorded: lose significantly less bone
BV/TV, BV, connectivity density, trabecular thickness, and trabecular number ([2]; ovx mice, daily treatment, four weeks, relative to sham): but not in Halofuginone treated ovx mice relative to sham
Bone volume per total volume (BV/TV) ([2]; ovx mice, daily treatment, two weeks): significantly lower in vehicle treated ovx mice compared with either sham or Halofuginone treated ovx mice
ovariectomy-induced bone loss ([2]; two weeks post-ovx): lost significantly less bone than PBS treated mice; also recorded: protects from ovariectomy-induced bone loss; also recorded: lose significantly less bone
fibrosis accumulation (fibrosis accumulation): inhibit fibrosis accumulation
TGFβ inhibition ([3]; at concentrations that inhibit IL-17 production): no TGFβ inhibition is seen
IL-17 production and TH17 cell differentiation [3]: inhibits IL-17 production and TH17 cell differentiation
serum CTx (serum CTx): reduces serum CTx; also recorded: blunted, non-statistically significant, increase
percentage of CD4+ T-cells producing IL-17 [4]: reduces Th17 cells; also recorded: significantly reduced
maximal tolerated dose ([5]; daily oral dose): 1.5 mg
tolerability ([5]; oral, 1.5 to 2.5 mg): moderately tolerated
tolerability of single oral doses ([5]; single oral doses of 0.07 and 0.5 mg): safe and well tolerated
Collagen type II or III (collagen α1(I)): not inhibited
collagen α1(I) mRNA and protein levels (collagen α1(I); variety of cells): inhibits collagen α1(I) mRNA and protein levels
bone formation rates (bone formation): does not affect bone formation; also recorded: equivalent bone formation rates
percent body fat (Body composition by MRI): reduced percent body fat
percent lean mass (Body composition by MRI): small but statistically significant increase
total fat mass (Body composition by MRI): significantly less total fat mass

CNc1ccccc1C(=O)N[C@H]1C(O)=C[C@@H]2[C@@H](O)CCCN2C1(C)C [compound 39]
EC50 (P. falciparum FCR-3; [8]): 6e-07 M
EC50 (FM3A mouse mammary cells; [9]): > 1.7e-05 M

O=C(C[C@H]1NCCC[C@@H]1O)Cn1cnc2ccccc2c1=O [compound 1, febrifugine]
EC50 (P. falciparum FCR-3; [6]): 7e-10 M
EC50 (FM3A mouse mammary cells; [7]): 1.7e-07 M

O=C(C[C@H]1NCCC[C@@H]1O)Cn1ccc2ccccc2c1=O [compound 14]
EC50 (P. falciparum FCR-3; [6]): 5e-07 M
EC50 (FM3A mouse mammary cells; [7]): > 1.6e-05 M
